Assay results as given in patent US20240051970A1, “COMPOUNDS AND COMPOSITIONS FOR TREATING CONDITIONS ASSOCIATED WITH STING ACTIVITY” (IFM Due, Inc., priority 2020, published 2024).

Molecular target: T1, hSTING (Homo sapiens, UniProt Q86WV6, G230A/H232R/R293Q/R71H)
T1 construct: host or cells: THP1-Dual KO-IFNAR2 cells
Test: STING reporter assay (luciferase) in THP1-Dual KO-IFNAR2 cells activated with 2'3'cGAMP
Format: cell-based
Settings: 15 μM 2'3'cGAMP, 24 h
Description: STING pathway activation by the compounds described herein was measured using THP1-Dual™ cells (KO-IFNAR2).
THP1-Dual™ KO-IFNAR2 Cells (obtained from invivogen) were maintained in RPMI, 10% FCS, 5 ml P/S, 2 mM L-glut, 10 mM Hepes, and 1 mM sodium pyruvate. Compounds were spotted in empty 384 well tissue culture plates (Greiner 781182) by Echo for a final concentration of 0.0017-100 μM. Cells were plated into the TC plates at 40 μL per well, 2×10E6 cells/mL. For activation with STING ligand, 2′3′cGAMP (MW 718.38, obtained from Invivogen), was prepared in Optimem media.
The following solutions were prepared for each 1×384 plate: • Solution A: 2 mL Optimem with one of the following stimuli: • 60 μL of 10 mM 2′3′cGAMP 4 150 μM stock • Solution B: 2 mL Optimem with 60 μL Lipofectamine 2000 4 Incubate 5 min at RT
2 mL of solution A and 2 ml Solution B was mixed and incubated for 20 min at room temperature (RT). 20 μL of transfection solution (A+B) was added on top of the plated cells, with a final 2′3′cGAMP concentration of 15 μM. The plates were then centrifuged immediately at 340 g for 1 minute, after which they were incubated at 37° C., 5% CO2, >98% humidity for 24 h. Luciferase reporter activity was then measured. EC50 values were calculated by using standard methods known in the art.
Luciferase reporter assay: 10 μL of supernatant from the assay was transferred to white 384-plate with flat bottom and squared wells. One pouch of QUANTI-Luc™ Plus was dissolved in 25 mL of water. 100 μL of QLC Stabilizer per 25 mL of QUANTI-Luc™ Plus solution was added. 50 μL of QUANTI-Luc™ Plus/QLC solution per well was then added. Luminescence was measured on a Platereader (e.g., Spectramax I3X (Molecular Devices GF3637001)).
Luciferase reporter activity was then measured. EC50 values were calculated by using standard methods known in the art.

T1 sequence (Q86WV6 whole entry R71H/G230A/H232R/R293Q): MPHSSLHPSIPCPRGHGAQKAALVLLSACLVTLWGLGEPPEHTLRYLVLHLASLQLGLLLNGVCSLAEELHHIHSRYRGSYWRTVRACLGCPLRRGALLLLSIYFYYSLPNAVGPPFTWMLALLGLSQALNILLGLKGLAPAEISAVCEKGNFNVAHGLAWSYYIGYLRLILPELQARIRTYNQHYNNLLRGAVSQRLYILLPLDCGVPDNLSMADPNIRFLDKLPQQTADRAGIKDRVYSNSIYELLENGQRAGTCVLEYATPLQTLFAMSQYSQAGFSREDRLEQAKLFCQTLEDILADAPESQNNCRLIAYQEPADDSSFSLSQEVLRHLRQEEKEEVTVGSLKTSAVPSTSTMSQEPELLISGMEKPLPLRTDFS

Row | EC50 [nM] | SMILES
1 | 1000 to 5000 | COCCn1c(Nc2cc(Cl)c3cc[nH]c3c2)nc2cc(Cl)c(Cl)cc21 [Compound 104, 5,6-dichloro-N-(4-chloro-1H-indol-6-yl)-1-(2-methoxyethyl)-1H-benzo[d]imidazol-2-amine]
2 | 200 to 1000 | Fc1cc(Nc2nc3cc(Cl)c(Cl)cc3[nH]2)cc2[nH]ccc12 [Compound 105, 5,6-dichloro-N-(4-fluoro-1H-indol-6-yl)-1H-benzo[d]imidazol-2-amine]
3 | 1000 to 5000 | Clc1ccc2c(c1)nc(Nc1cc(Cl)c3cc[nH]c3c1)n2Cc1ccccc1 [Compound 106, 1-benzyl-5-chloro-N-(4-chloro-1H-indol-6-yl)-1H-benzo[d]imidazol-2-amine]
4 | 1000 to 5000 | Clc1ccc2c(c1)nc(Nc1cc(Cl)c3cc[nH]c3c1)n2CCc1ccccc1 [Compound 107, 5-chloro-N-(4-chloro-1H-indol-6-yl)-1-phenethyl-1H-benzo[d]imidazol-2-amine]
5 | 200 to 1000 | Clc1cc(Nc2nc3ccc(C4CCC4)cc3[nH]2)cc2[nH]ccc12 [Compound 108, N-(4-chloro-1H-indol-6-yl)-6-cyclobutyl-1H-benzo[d]imidazol-2-amine]
6 | 200 to 1000 | Cn1c(Nc2cc(Cl)c3cc[nH]c3c2)nc2cc(Cl)c(Cl)cc21 [Compound 109, 5,6-dichloro-N-(4-chloro-1H-indol-6-yl)-1-methyl-1H-benzo[d]imidazol-2-amine]
7 | 40 to 200 | Clc1cc2nc(Nc3cc(Cl)c4cc[nH]c4c3)[nH]c2cc1Cl [Compound 110, 5,6-dichloro-N-(4-chloro-1H-indol-6-yl)-1H-benzo[d]imidazol-2-amine]
8 | 200 to 1000 | FC(F)(F)c1cc2[nH]c(Nc3cc(Cl)c4cc[nH]c4c3)nc2cn1 [Compound 111, N-(4-chloro-1H-indol-6-yl)-6-(trifluoromethyl)-1H-imidazo[4,5-c]pyridin-2-amine]
9 | 200 to 1000 | FC(F)(F)c1cnc2nc(Nc3cc(Cl)c4cc[nH]c4c3)[nH]c2c1 [Compound 112, N-(4-chloro-1H-indol-6-yl)-6-(trifluoromethyl)-1H-imidazo[4,5-b]pyridin-2-amine]
10 | 1000 to 5000 | Cn1c(Nc2cc(Cl)c3cc[nH]c3c2)nc2cc(C(F)(F)F)ccc21 [Compound 113, N-(4-chloro-1H-indol-6-yl)-1-methyl-5-(trifluoromethyl)-1H-benzo[d]imidazol-2-amine]
11 | 1000 to 5000 | Cn1c(Nc2ccc3cc[nH]c3c2)nc2ccc(C(F)(F)F)cc21 [Compound 114, N-(1H-indol-6-yl)-1-methyl-6-(trifluoromethyl)-1H-benzo[d]imidazol-2-amine]
12 | 200 to 1000 | Fc1ccc2nc(Nc3cc(Cl)c4cc[nH]c4c3)[nH]c2c1 [Compound 115, N-(4-chloro-1H-indol-6-yl)-6-fluoro-1H-benzo[d]imidazol-2-amine]
13 | 200 to 1000 | N#Cc1ccc2[nH]c(Nc3cc(Cl)c4cc[nH]c4c3)nc2c1 [Compound 116, 2-((4-chloro-1H-indol-6-yl)amino)-1H-benzo[d]imidazole-5-carbonitrile]
14 | 200 to 1000 | Clc1ccc2[nH]c(Nc3cc(Cl)c4cc[nH]c4c3)nc2c1 [Compound 117, 5-chloro-N-(4-chloro-1H-indol-6-yl)-1H-benzo[d]imidazol-2-amine]
15 | 200 to 1000 | Cc1ccc2[nH]c(Nc3cc(Cl)c4cc[nH]c4c3)nc2c1 [Compound 118, N-(4-chloro-1H-indol-6-yl)-5-methyl-1H-benzo[d]imidazol-2-amine]
16 | 200 to 1000 | Clc1cc(Nc2nc3cc(Br)ccc3[nH]2)cc2[nH]ccc12 [Compound 119, 5-bromo-N-(4-chloro-1H-indol-6-yl)-1H-benzo[d]imidazol-2-amine]
17 | 200 to 1000 | FC(F)(F)c1ccc2[nH]c(Nc3cc(Cl)c4cc[nH]c4c3)nc2c1 [Compound 120, N-(4-chloro-1H-indol-6-yl)-5-(trifluoromethyl)-1H-benzo[d]imidazol-2-amine]
18 | 200 to 1000 | Cn1c(Nc2ccc3cc[nH]c3c2)nc2cc(C(F)(F)F)ccc21 [Compound 121, N-(1H-indol-6-yl)-1-methyl-5-(trifluoromethyl)-1H-benzo[d]imidazol-2-amine]

Row | EC50 [nM] | SMILES
19 | 1000 to 5000 | CCn1c(Nc2ccc3cc[nH]c3c2)nc2cc(C(F)(F)F)ccc21 [Compound 122, 1-ethyl-N-(1H-indol-6-yl)-5-(trifluoromethyl)-1H-benzo[d]imidazol-2-amine]
20 | 200 to 1000 | FC(F)(F)c1ccc2[nH]c(Nc3ccc4cc[nH]c4c3)nc2c1 [Compound 123, N-(1H-indol-6-yl)-5-(trifluoromethyl)-1H-benzo[d]imidazol-2-amine]
21 | 1000 to 5000 | CC(C)(C)C1CCC(c2ccc3[nH]c(Nc4cc(Cl)c5cc[nH]c5c4)nc3c2)CC1 (stereo not drawn) [Compound 136, 5-(4-tert-butylcyclohexyl)-N-(4-chloro-1H-indol-6-yl)-1H-1,3-benzodiazol-2-amine]
22 | 1000 to 5000 | CCOC(=O)C1CCC(c2ccc3[nH]c(Nc4cc(Cl)c5cc[nH]c5c4)nc3c2)CC1 (stereo not drawn) [Compound 138, ethyl 4-{2-[(4-chloro-1H-indol-6-yl)amino]-1H-1,3-benzodiazol-5-yl}cyclohexane-1-carboxylate]
23 | 1000 to 5000 | OC1CCC(c2ccc3[nH]c(Nc4cc(Cl)c5cc[nH]c5c4)nc3c2)CC1 (stereo not drawn) [Compound 139, 4-{2-[(4-chloro-1H-indol-6-yl)amino]-1H-1,3-benzodiazol-5-yl}cyclohexan-1-ol]
24 | 1000 to 5000 | CC(C)(C)OC(=O)N1C2C=C(c3ccc4[nH]c(Nc5cc(Cl)c6cc[nH]c6c5)nc4c3)CC1CC2 (stereo not drawn) [Compound 140, tert-butyl 3-{2-[(4-chloro-1H-indol-6-yl)amino]-1H-1,3-benzodiazol-5-yl}-8-azabicyclo[3.2.1]oct-2-ene-8-carboxylate]
25 | 200 to 1000 | Clc1cc(Nc2nc3cc(C4CCCOC4)ccc3[nH]2)cc2[nH]ccc12 (stereo not drawn) [Compound 141, N-(4-chloro-1H-indol-6-yl)-5-(oxan-3-yl)-1H-1,3-benzodiazol-2-amine]
26 | 1000 to 5000 | FC(F)(F)C1CCC(c2ccc3[nH]c(Nc4cc(Cl)c5cc[nH]c5c4)nc3c2)CC1 (stereo not drawn) [Compound 142, N-(4-chloro-1H-indol-6-yl)-5-[4-(trifluoromethyl)cyclohexyl]-1H-1,3-benzodiazol-2-amine]
27 | 5000 to 100000 | CC1(C)CC(c2ccc3[nH]c(Nc4cc(Cl)c5cc[nH]c5c4)nc3c2)CC(C)(C)O1 [Compound 143, N-(4-chloro-1H-indol-6-yl)-5-(2,2,6,6-tetramethyloxan-4-yl)-1H-1,3-benzodiazol-2-amine]
28 | 200 to 1000 | Cn1ccc(-c2ccc3[nH]c(Nc4cc(Cl)c5cc[nH]c5c4)nc3c2)n1 [Compound 144, N-(4-chloro-1H-indol-6-yl)-5-(1-methyl-1H-pyrazol-3-yl)-1H-1,3-benzodiazol-2-amine]
29 | 200 to 1000 | Clc1cc(Nc2nc3cc(-c4ccc(CN5CCOCC5)s4)ccc3[nH]2)cc2[nH]ccc12 [Compound 145, N-(4-chloro-1H-indol-6-yl)-5-{5-[(morpholin-4-yl)methyl]thiophen-2-yl}-1H-1,3-benzodiazol-2-amine]
30 | 1000 to 5000 | Clc1cc(Nc2nc3cc(-c4ccc(N5CCCC5)nc4)ccc3[nH]2)cc2[nH]ccc12 [Compound 146, N-(4-chloro-1H-indol-6-yl)-5-[6-(pyrrolidin-1-yl)pyridin-3-yl]-1H-1,3-benzodiazol-2-amine]
31 | 5000 to 100000 | CN(C)CCn1cc(-c2ccc3[nH]c(Nc4cc(Cl)c5cc[nH]c5c4)nc3c2)cn1 [Compound 147, N-(4-chloro-1H-indol-6-yl)-5-{1-[2-(dimethylamino)ethyl]-1H-pyrazol-4-yl}-1H-1,3-benzodiazol-2-amine]
32 | 200 to 1000 | CC(C)(C)OC(=O)NC1CCC(c2ccc3[nH]c(Nc4cc(Cl)c5cc[nH]c5c4)nc3c2)CC1 (stereo not drawn) [Compound 148, tert-butyl N-(4-{2-[(4-chloro-1H-indol-6-yl)amino]-1H-1,3-benzodiazol-5-yl}cyclohexyl)carbamate]
33 | 200 to 1000 | N#CC1(c2ccc(-c3ccc4[nH]c(Nc5cc(Cl)c6cc[nH]c6c5)nc4c3)cc2)CC1 [Compound 149, 1-(4-{2-[(4-chloro-1H-indol-6-yl)amino]-1H-1,3-benzodiazol-5-yl}phenyl)cyclopropane-1-carbonitrile]
34 | 200 to 1000 | Cn1nccc1-c1ccc2[nH]c(Nc3cc(Cl)c4cc[nH]c4c3)nc2c1 [Compound 150, N-(4-chloro-1H-indol-6-yl)-5-(1-methyl-1H-pyrazol-5-yl)-1H-1,3-benzodiazol-2-amine]
35 | 200 to 1000 | CC(C)(C)OC(=O)N1CCCC(c2ccc3[nH]c(Nc4cc(Cl)c5cc[nH]c5c4)nc3c2)C1 (stereo not drawn) [Compound 151, tert-butyl 3-{2-[(4-chloro-1H-indol-6-yl)amino]-1H-1,3-benzodiazol-5-yl}piperidine-1-carboxylate]
36 | 1000 to 5000 | CC(=O)N1CCC(c2ccc3[nH]c(Nc4cc(Cl)c5cc[nH]c5c4)nc3c2)CC1 [Compound 152, 1-(4-{2-[(4-chloro-1H-indol-6-yl)amino]-1H-1,3-benzodiazol-5-yl}piperidin-1-yl)ethan-1-one]
